The values that follow come from patent publication US11058744B2, “Composition for treating prostate cancer” (GemVax & KAEL Co., Ltd., priority 2013, dated 2021).

The test system of experiment [1] is prostate cancer having a hormone tolerance. The settings on record: Beer et al, 2001; cited from earlier work.
A further experiment relates to LNCaP cell line. The experiment can be described thus: Transwell migration assay on LNCaP cell line. It counts as cell-based, human. The settings on record: medium containing docetaxel (3 nM), no Pep1. Here is the method: The effects of Pep1 on cancer cell migration were evaluated by trans-well assay.
The cancer cell migration was evaluated by using the reagents and materials and the cell line incubation method which are described in connection with Example 1. A migration assay method used for this experiment is as follows.
The LNCaP cell line was incubated on a 6-well plate overnight, and then treated with various concentrations of Pep1 (0, 1, 10, 30 μM) and incubated for 24 hours. Thereafter, the resultant LNCaP cell line was seeded at the cell population of 1×10^4/well on a trans-well plate. Three hours after, the upper compartment of each well was removed, and cells that had migrated downwards were immobilized, stained, and quantified.
A separate experiment was further performed to identify cell migration when Pep1 was co-administered with docetaxel. The LNCaP cell line was incubated on a 6-well plate overnight, and then, treated with various concentrations of Pep1(0, 1, 3, 10, and 30 μM) and incubated for 24 hours. Additionally, the cell line was incubated in a growth medium containing docetaxel (3 nM) for 48 hours, and then, seeded on a trans-well plate at a cell population of 1×10^4/well. Three hours after, the upper compartment of each well was removed, and cells that had migrated downwards were immobilized, stained, and quantified. […]

The next experiment concerns prostate cancer. The settings on record: administered together with docetaxel; Henly et al 2012; cited from earlier work.

Take `CC(=O)O[C@@]12CO[C@@H]1C[C@H](O)[C@@]1(C)C(=O)[C@H](O)C3=C(C)[C@@H](OC(=O)[C@H](O)[C@@H](NC(=O)OC(C)(C)C)c4ccccc4)C[C@@](O)([C@@H](OC(=O)c4ccccc4)[C@H]21)C3(C)C` [docetaxel]: the treatment efficiency result in experiment [1] is recorded as “about 40%”. For the same compound, in the experiment on LNCaP cell line, the “cancer cell migration (migrated cell number)” value is listed as “the cancer cell migration was increased”.
As to `Nc1cccc2c1CN(C1CCC(=O)NC1=O)C2=O` (stereo not drawn) [lenalidomide], the anti-cancer effects result with prostate cancer is “anti-cancer effects are significantly increased”.
